15 molecules from patent US20060264463A1, “Chemical compounds” (priority 2003, published 2006) can be followed below.

Each structure is given as a SMILES string.

In this assay the target is T1, human H1 receptor (Homo sapiens, UniProt P35367).
T1 construct: purchased Euroscreen SA, Brussels, Belgium ES-390-M; host or cells: CHO-K1
T1 sequence (P35367 whole entry): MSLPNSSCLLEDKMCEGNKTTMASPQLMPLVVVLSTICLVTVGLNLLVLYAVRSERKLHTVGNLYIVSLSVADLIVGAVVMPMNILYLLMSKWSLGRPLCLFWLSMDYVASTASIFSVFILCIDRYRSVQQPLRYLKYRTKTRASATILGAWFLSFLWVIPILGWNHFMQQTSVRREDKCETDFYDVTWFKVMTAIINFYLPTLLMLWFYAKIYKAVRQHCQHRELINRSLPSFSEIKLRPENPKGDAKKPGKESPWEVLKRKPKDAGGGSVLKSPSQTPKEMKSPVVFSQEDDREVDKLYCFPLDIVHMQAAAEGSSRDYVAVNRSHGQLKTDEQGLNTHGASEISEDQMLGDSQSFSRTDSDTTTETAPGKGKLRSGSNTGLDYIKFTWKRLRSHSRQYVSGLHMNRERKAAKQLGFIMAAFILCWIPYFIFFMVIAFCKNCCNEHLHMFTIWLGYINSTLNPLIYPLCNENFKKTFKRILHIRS
The experiment in a line: Histamine H1 receptor binding, competition displacement of [3H]-pyrilamine. The settings on record: displacement of 1 nM [3H]-pyrilamine; 2 μg membranes from recombinant CHO-K1 cells expressing the human H1 receptor; 1 hour at room temperature; read-out: H1 pKi (converted).
Turning to `Cc1cc(Cl)ccc1OC1CCN(CC2CCN(c3ccc([N+](=O)[O-])cc3C(=O)O)CC2)CC1` [Example 59, 2-(4-{[4-(4-chloro-2-methylphenoxy)piperidin-1-yl]methyl}piperidin-1-yl)-5-nitrobenzoic acid], the Ki is 1.58 nM.
Under `Cc1ccc(C(=O)O)c(N2CCC(CN3CCC(Oc4ccc(Cl)c(Cl)c4)CC3)CC2)n1` [Example 47, 2-(4-{[4-(3,4-dichlorophenoxy)piperidin-1-yl]methyl}piperidin-1-yl)-6-methylnicotinic acid] stands 5.01 nM; under `Cc1cc(OC2CCN(CC3CCN(c4c(F)cccc4C(=O)O)CC3)CC2)ccc1Cl` [Example 68, 2-(4-{[4-(4-chloro-3-methylphenoxy)piperidin-1-yl]methyl}piperidin-1-yl)-3-fluorobenzoic acid], 15.8 nM; under `CCOC(=O)c1cccc(N2CCC(CN3CCC(Cc4ccc(Cl)c(Cl)c4)CC3)CC2)c1` [Example 32, Ethyl 3-(4-{[4-(3,4-dichlorobenzyl)piperidin-1-yl]methyl}piperidin-1-yl)benzoate], 10 nM.
For `Cc1cc(Cl)ccc1OC1CCN(CC2CCN(c3ccccc3C(=O)O)CC2)CC1` [Example 49, 2-(4-{[4-(4-chloro-2-methylphenoxy)piperidin-1-yl]methyl}piperidin-1-yl)benzoic acid], the Ki was 50.1 nM.
The same measure for `N#Cc1ccc(OC2CCN(CC3CCN(c4c(Cl)cccc4C(=O)O)CC3)CC2)cc1Cl` [Example 48, 3-chloro-2-(4-{[4-(3-chloro-4-cyanophenoxy)piperidin-1-yl]methyl}piperidin-1-yl)benzoic acid]: 79.4 nM; for `Cc1c(OC2CCN(CC3CCN(c4cccc(C(=O)O)c4)CC3)CC2)ccc(Cl)c1Cl` [Example 96, 3-(4-{[4-(3,4-dichloro-2-methylphenoxy)piperidin-1-yl]methyl}piperidin-1-yl)benzoic acid]: 20 nM; for `N#Cc1ccc(OC2CCN(CC3CCN(c4ccccc4C(=O)O)CC3)CC2)cc1Cl` [Example 34, 2-(4-{[4-(3-chloro-4-cyanophenoxy)piperidin-1-yl]methyl}piperidin-1-yl)benzoic acid]: 631 nM.
The same measure for `N#Cc1ccc(OC2CCN(CC3CCN(c4cc(Cl)ccc4C(=O)O)CC3)CC2)cc1Cl` [Example 36, 4-chloro-2-(4-{[4-(3-chloro-4-cyanophenoxy)piperidin-1-yl]methyl}piperidin-1-yl)benzoic acid]: 10 nM; for `COc1cccc(C(=O)O)c1N1CCC(CN2CCC(Oc3ccc(C#N)c(Cl)c3)CC2)CC1` [Example 55, 2-(4-{[4-(3-chloro-4-cyanophenoxy)piperidin-1-yl]methyl}piperidin-1-yl)-3-methoxybenzoic acid]: 316 nM; for `O=C(O)c1cccc(N2CCC(CN3CCC(Cc4ccc(Cl)c(Cl)c4)CC3)CC2)c1` [Example 106, 3-(4-{[4-(3,4-dichlorobenzyl)piperidin-1-yl]methyl}piperidin-1-yl)benzoic acid]: 20 nM.
Under `Cc1cc(C(=O)O)cc(N2CCC(CN3CCC(Oc4ccc(Cl)c(Cl)c4)CC3)CC2)c1` [Example 99, 3-(4-{[4-(3,4-dichlorophenoxy)piperidin-1-yl]methyl}piperidin-1-yl)-5-methylbenzoic acid] stands 7.94 nM; under `O=C(O)c1ccccc1N1CCC(O)(CN2CCC(Oc3ccc(Cl)c(Cl)c3)CC2)CC1` [Example 63, 2-(4-{[4-(3,4-dichlorophenoxy)piperidin-1-yl]methyl}-4-hydroxypiperidin-1-yl)benzoic acid], 50.1 nM; under `Cc1cc(OC2CCN(CC3CCN(c4cc(Cl)ccc4C(=O)O)CC3)CC2)ccc1Cl` [Example 74, 4-chloro-2-(4-{[4-(4-chloro-3-methylphenoxy)piperidin-1-yl]methyl}piperidin-1-yl)benzoic acid], 2.51 nM.
Consider `COC(=O)c1ccccc1N1CCC(CN2CCC(Oc3ccc(Cl)c(Cl)c3)CC2)CC1` [Example 1, methyl 2-[4-[[4-(3,4-dichlorophenoxy)-1-piperidinyl]methyl]-1-piperidinyl)-benzoate], for which the Ki is 2.51 nM.
